Laboratory results as given in patent US10005768B2, “Carboxamide derivatives and use thereof” (Purdue Pharma L.P., priority 2013, dated 2018).

Target: human Nav1.7 (Homo sapiens (Human), UniProt Q15858)
Assay: FLIPR sodium dye assay (CoroNa Green AM Na+ dye, primary fluorescence assay)
Format: cell-based
Settings: recombinant Nav1.7/HEK293 cells
Procedure: In vitro assays were performed in a recombinant cell line expressing cDNA encoding the alpha subunit (Nav1.7, SCN9a, PN1, NE) of human Nav1.7 (Accession No. NM_002977). The cell line was provided by investigators at Yale University (Cummins et al, J. Neurosci. 18(23): 9607-9619 (1998)). For dominant selection of the Nav1.7-expressing clones, the expression plasmid co-expressed the neomycin resistance gene. The cell line was constructed in the human embryonic kidney cell line, HEK293, under the influence of the CMV […] promoter, and stable clones were selected using limiting dilution cloning and antibiotic selection using the neomycin analogue, G418. Recombinant beta and gamma subunits were not introduced into this cell line. Additional cell lines expressing recombinant Nav1.7 cloned from other species can also be used, alone or in combination with various beta subunits, gamma subunits or chaperones.
Unless otherwise noted, cell culture reagents were purchased from Mediatech of Herndon, Va. The recombinant Nav1.7/HEK293 cells were routinely cultured in growth medium consisting of Dulbecco's […] essential medium containing 10% fetal bovine serum (FBS, Hyclone, Thermo Fisher Scientific, Logan, Utah), 100 U/mL penicillin, 100 μg/mL streptomycin, 2-4 mM L-glutamine, and […] G418. For natural, non-recombinant cell lines, the selective antibiotic was omitted, and additional media formulations can be applied as needed.
The final buffer consisted of 20 mM Hepes, pH 7.3, 1.261 mM CaCl2, 0.493 mM MgCl2, 0.407 mM Mg(SO)4, 5.33 mM KCl, 0.441 mM KH2PO4, 137 mM NaCl, 0.336 mM Na2HPO4 and […] D-glucose (Hanks et al., Proc. Soc. Exp. Biol. Med. 71:196 (1949)), and the simple formulation was typically the basic buffer throughout the assay (i.e., all wash and addition steps).
The fluorescence indicator used in the primary fluorescence assay was the cell permeant version of CoroNa™ Green (Invitrogen, Molecular Probes, Eugene, Oreg.), a dye that emits light in the fluorescence range (Harootunian et al., J. Biol. Chem. 264(32):19458-19467 (1989)). The intensity of this emission, but not the wavelength range, is increased when the dye is exposed to Na^+ ions, which it can bind with partial selectivity. Cells expressing Nav1.7 or other sodium channels were loaded with the CoroNa™ Green dye immediately in advance of the fluorescence assay, and then, after agonist stimulation, the mobilization of Na^+ ions was detected as the Na^+ ions flowed from the extracellular fluid into the cytoplasm through the activated sodium channel pores. The dye was stored in the dark as a lyophilized powder, and then an aliquot was dissolved immediately before the cell loading procedure, according to the instructions of the manufacturer, to a stock concentration of 10 mM in DMSO. It was then diluted in the assay buffer to a 4× concentrated working solution, so that the final concentration of dye in the cell loading buffer was 5 μM.
In the fluorescence assays, two agonists were used in combination, namely 1) veratridine; and 2) the venom from the yellow scorpion, Leiurus quinquestriatus hebraeus. Veratridine is an alkaloid small molecule that facilitates the capture of channel openings by inhibiting inactivation, and the scorpion venom is a natural preparation that includes peptide toxins selective for different subsets of voltage-gated sodium channels. These scorpion toxins inhibit the fast inactivation of their cognate target channels. Stock solutions of the agonists were prepared to 40 mM in DMSO (veratridine) and 1 mg/mL in dH2O (scorpion venom), and then diluted to make a 4× or 2× stock (depending on the particular assay) in assay buffer, the final concentration being 100 μM (veratridine) and 10 μg/mL (scorpion venom). Both of the agonists were purchased from Sigma Aldrich, St. Louis, Mo.
Test compounds were dissolved in DMSO to yield 10 mM stock solutions. […]

human Nav1.7, sequence (Q15858 other isoform, or with tags, fused parts or gaps): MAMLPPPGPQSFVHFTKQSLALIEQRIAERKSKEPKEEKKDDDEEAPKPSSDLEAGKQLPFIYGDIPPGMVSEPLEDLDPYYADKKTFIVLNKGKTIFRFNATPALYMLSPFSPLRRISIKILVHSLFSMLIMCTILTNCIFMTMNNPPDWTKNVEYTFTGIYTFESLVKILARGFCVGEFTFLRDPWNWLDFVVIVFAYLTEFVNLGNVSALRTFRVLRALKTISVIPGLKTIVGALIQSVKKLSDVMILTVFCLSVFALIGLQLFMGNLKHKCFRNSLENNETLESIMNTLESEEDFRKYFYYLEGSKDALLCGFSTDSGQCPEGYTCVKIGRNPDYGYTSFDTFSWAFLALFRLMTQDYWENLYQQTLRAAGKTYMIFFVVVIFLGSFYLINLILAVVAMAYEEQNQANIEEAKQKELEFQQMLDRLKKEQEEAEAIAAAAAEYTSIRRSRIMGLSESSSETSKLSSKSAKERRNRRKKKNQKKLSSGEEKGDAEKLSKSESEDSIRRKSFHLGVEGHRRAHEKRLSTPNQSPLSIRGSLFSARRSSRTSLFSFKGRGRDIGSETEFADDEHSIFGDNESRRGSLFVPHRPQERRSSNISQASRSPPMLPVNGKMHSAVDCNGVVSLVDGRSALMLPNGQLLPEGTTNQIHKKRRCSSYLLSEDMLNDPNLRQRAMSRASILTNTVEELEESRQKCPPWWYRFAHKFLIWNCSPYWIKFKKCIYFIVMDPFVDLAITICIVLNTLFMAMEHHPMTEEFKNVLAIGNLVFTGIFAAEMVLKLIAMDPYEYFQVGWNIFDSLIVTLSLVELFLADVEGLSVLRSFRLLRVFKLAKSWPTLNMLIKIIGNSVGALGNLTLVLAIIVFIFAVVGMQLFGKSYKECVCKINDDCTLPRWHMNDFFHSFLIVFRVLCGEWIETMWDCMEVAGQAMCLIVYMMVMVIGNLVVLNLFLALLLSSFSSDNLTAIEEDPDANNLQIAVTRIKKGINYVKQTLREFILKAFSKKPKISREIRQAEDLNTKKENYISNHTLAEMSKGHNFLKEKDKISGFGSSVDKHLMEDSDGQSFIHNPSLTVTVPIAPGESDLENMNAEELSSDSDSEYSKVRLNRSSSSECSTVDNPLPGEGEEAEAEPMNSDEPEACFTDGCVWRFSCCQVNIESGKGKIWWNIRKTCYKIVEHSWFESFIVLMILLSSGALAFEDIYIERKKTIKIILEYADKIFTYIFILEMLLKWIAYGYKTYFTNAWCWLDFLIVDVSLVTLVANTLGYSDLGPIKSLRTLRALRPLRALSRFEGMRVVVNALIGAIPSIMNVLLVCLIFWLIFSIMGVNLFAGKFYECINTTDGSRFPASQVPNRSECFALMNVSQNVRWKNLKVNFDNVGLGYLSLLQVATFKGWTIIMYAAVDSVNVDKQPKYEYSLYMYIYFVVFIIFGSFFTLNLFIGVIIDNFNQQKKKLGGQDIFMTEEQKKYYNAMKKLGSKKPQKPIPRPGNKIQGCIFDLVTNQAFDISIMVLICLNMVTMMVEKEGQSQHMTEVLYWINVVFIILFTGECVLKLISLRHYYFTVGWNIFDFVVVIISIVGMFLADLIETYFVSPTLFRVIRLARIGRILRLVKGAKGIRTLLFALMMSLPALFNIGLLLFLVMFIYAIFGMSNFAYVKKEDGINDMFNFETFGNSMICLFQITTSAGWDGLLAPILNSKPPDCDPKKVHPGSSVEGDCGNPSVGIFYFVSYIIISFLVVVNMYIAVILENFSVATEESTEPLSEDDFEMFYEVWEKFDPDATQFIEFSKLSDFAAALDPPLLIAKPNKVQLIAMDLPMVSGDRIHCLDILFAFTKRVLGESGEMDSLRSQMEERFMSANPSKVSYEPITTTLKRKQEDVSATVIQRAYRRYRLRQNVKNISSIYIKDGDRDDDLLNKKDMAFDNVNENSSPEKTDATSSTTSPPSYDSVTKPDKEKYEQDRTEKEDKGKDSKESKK

| Structure (SMILES) | IC50 |
| --- | --- |
| NC(=O)c1cccc(-c2ccc(Oc3ccc(C(F)(F)F)c(CN4CC(N)C4)c3)cc2)n1 [compound 62, 6-(4-(3-((3-aminoazetidin-1-yl)methyl)-4-(trifluoromethyl)phenoxy)phenyl) picolinamide] | 0.31 ± 0.066 µM |
| NC(=O)c1cccc(-c2ccc(Oc3ccc(C(F)(F)F)cc3C(O)C[N+](=O)[O-])cc2)n1 (centres unmarked) [compound 63, 6-(4-(2-(1-hydroxy-2-nitroethyl)-4-(trifluoromethyl)phenoxy)-phenyl)picolinamide] | 0.337 ± 0.056 µM |
| NCC(O)c1cc(C(F)(F)F)ccc1Oc1ccc(-c2cccc(C(N)=O)n2)cc1 (centres unmarked) [compound 64, 6-(4-(2-(2-amino-1-hydroxy-ethyl)-4-(trifluoromethyl)-phenoxy)phenyl)picolinamide] | 2.14 ± 0.199 µM |
| NCc1cc(C(F)(F)F)ccc1Oc1ccc(-c2cccc(C(N)=O)n2)cc1 [compound 65, 6-(4-(2-(aminomethyl)-4-(trifluoromethyl)phenoxy)phenyl) picolinamide] | 0.862 ± 0.012 µM |
| O=C1CN(Cc2cc(C(F)(F)F)ccc2Oc2ccc(-c3cccc([C@H](O)CO)n3)cc2)CCN1 [compound 74, (S)-4-(2-(4-(6-(1,2-dihydroxyethyl)pyridin-2-yl)phenoxy)-5-(trifluoro-methyl)benzyl)piperazin-2-one] | 0.672 ± 0.059 µM |
| OC[C@@H](O)c1cccc(-c2ccc(Oc3ccc(C(F)(F)F)cc3CN3CC[C@H](O)C3)cc2)n1 [compound 75, (S)-1-(6-(4-(2-(((S)-3-hydroxypyrrolidin-1-yl)methyl)-4-(trifluoromethyl)phenoxy)-phenyl)pyridin-2-yl)ethane-1,2-diol] | 0.972 ± 0.114 µM |
| NC(=O)c1cccc(-c2ccc(Oc3ccc(C(F)(F)F)cc3[C@@H](O)CO)cc2)n1 [compound 77, (R)-6-(4-(2-(1,2-dihydroxyethyl)-4-(trifluoromethyl)-phenoxy)phenyl)picolinamide] | 2.45 ± 0.344 µM |
| NC(=O)c1cccc(-c2ccc(Oc3ccc(C(F)(F)F)cc3C(O)CN3CCNC(=O)C3)cc2)n1 (centres unmarked) [compound 79, 6-(4-(2-(1-hydroxy-2-(3-oxopiperazin-1-yl)ethyl)-4-(trifluoromethyl)phenoxy)phenyl) picolinamide] | > 20 µM |
| NC(=O)c1cccc(-c2ccc(Oc3ccc(C(F)(F)F)cc3C(C(N)=O)N3CCCC3)cc2)n1 (centres unmarked) [compound 81, 6-(4-(2-(2-amino-2-oxo-1-(pyrrolidin-1-yl)ethyl)-4-(trifluoromethyl)phenoxy)phenyl) picolinamide] | 0.71 ± 0.0008 µM |
| NC(=O)c1cccc(-c2ccc(Oc3ccc(C(F)(F)F)cc3C(C(N)=O)N3CCCCC3)cc2)n1 (centres unmarked) [compound 82, 6-(4-(2-(2-amino-2-oxo-1-(piperidin-1-yl)ethyl)-4-(trifluoromethyl)phenoxy)phenyl) picolinamide] | 2.72 ± 0.264 µM |
| CCCNC(C(N)=O)c1cc(C(F)(F)F)ccc1Oc1ccc(-c2cccc(C(N)=O)n2)cc1 (centres unmarked) [compound 83, 6-(4-(2-(2-amino-2-oxo-1-(propylamino)ethyl)-4-(trifluoromethyl)phenoxy)phenyl) picolinamide] | 6.05 ± 1.33 µM |
| CN(C)C(C(N)=O)c1cc(C(F)(F)F)ccc1Oc1ccc(-c2cccc(C(N)=O)n2)cc1 (centres unmarked) [compound 84, 6-(4-(2-(2-amino-1-(dimethylamino)-2-oxoethyl)-4-(trifluoromethyl)phenoxy)phenyl) picolinamide] | 10 to 20 µM |
| CCN(CC)C(C(N)=O)c1cc(C(F)(F)F)ccc1Oc1ccc(-c2cccc(C(N)=O)n2)cc1 (centres unmarked) [compound 85, 6-(4-(2-(2-amino-1-(diethylamino)-2-oxoethyl)-4-(trifluoromethyl)phenoxy)phenyl) picolinamide] | 0.561 ± 0.024 µM |
| NC(=O)c1cccc(-c2ccc(Oc3ccc(F)cc3)cc2Cl)n1 [compound 86, 6-(2-chloro-4-(4-fluorophenoxy)-phenyl)picolinamide] | 0.49 ± 0.041 µM |
| NC(=O)c1cccc(-c2ccc(Oc3ccc(F)cc3)c(Cl)c2)n1 [compound 87, 6-(3-chloro-4-(4-fluorophenoxy)-phenyl)picolinamide] | 0.128 ± 0.03 µM |
| N#Cc1cc(-c2cccc(C(N)=O)n2)ccc1Oc1ccc(F)cc1 [compound 89] | > 20 µM |

| Structure (SMILES) | IC50 |
| --- | --- |
| NC(=O)c1cccc(-c2ccc(Oc3ccc(F)cc3)c(C(F)(F)F)c2)n1 [compound 90, 6-(4-(4-fluorophenoxy)-3-(trifluoromethyl)phenyl)picolin-amide] | > 20 µM |
| NC(=O)c1cccc(-c2ccc(Oc3ccc(F)cc3)cc2C(F)(F)F)n1 [compound 91, 6-(4-(4-fluorophenoxy)-2-(trifluoromethyl)phenyl)picolin-amide] | 0.577 ± 0.056 µM |
| CN(c1ccccc1)c1cc(-c2cccc(C(N)=O)n2)ccc1Oc1ccc(F)cc1 [compound 92, 6-(4-(4-fluorophenoxy)-3-(methyl(phenyl)amino)phenyl) picolinamide] | > 20 µM |
| CN(Cc1cc(-c2cccc(C(N)=O)n2)ccc1Oc1ccc(F)cc1)c1ccc(C(=O)O)cc1 [compound 93, 4-((5-(6-carbamoylpyridin-2-yl)-2-(4-fluorophenoxy)benzyl)-(methyl)amino)benzoic acid] | > 20 µM |
| NC(=O)c1cccc(-c2ccc(Oc3ccc(F)cc3)c(COc3ccc(Cl)cc3I)c2)n1 [compound 94, 6-(3-((4-chloro-2-iodophenoxy)methyl)-4-(4-fluorophenoxy)phenyl) picolinamide] | > 20 µM |
| CCN(CC)Cc1cc(-c2cccc(C(N)=O)n2)ccc1Oc1ccc(F)cc1 [compound 95, 6-(3-((diethylamino)methyl)-4-(4-fluorophenoxy)phenyl) picolinamide] | 1.33 ± 0.209 µM |
| CCOCc1cc(-c2cccc(C(N)=O)n2)ccc1Oc1ccc(F)cc1 [compound 96, 6-(3-(ethoxymethyl)-4-(4-fluorophenoxy)phenyl) picolinamide] | 1.13 ± 0.11 µM |
| NC(=O)c1cccc(-c2ccc(Oc3ccc(F)cc3)c(CN3CCCC3)c2)n1 [compound 97, 6-(4-(4-fluorophenoxy)-3-(pyrrolidin-1-ylmethyl)phenyl)-picolinamide] | 4.24 ± 0.919 µM |
| NC(=O)c1cccc(-c2ccc(Oc3ccc(F)cc3)c(CN3CCOCC3)c2)n1 [compound 98, 6-(4-(4-fluorophenoxy)-3-(morpholinomethyl)phenyl)picolin-amide] | 0.961 ± 0.07 µM |
| NC(=O)c1cccc(-c2ccc(Oc3ccc(F)cc3)cc2F)n1 [compound 99, 6-(2-fluoro-4-(4-fluorophenoxy)-phenyl)picolinamide] | 0.55 ± 0.057 µM |
| NC(=O)c1cccc(-c2ccc(Oc3ccc(F)cc3)c(-c3ccc(Cl)cc3)c2)n1 [compound 100, 6-(4′-chloro-6-(4-fluorophenoxy)-[1,1′-biphenyl]-3-yl)picolinamide] | 0.276 ± 0.063 µM |
| NC(=O)c1cccc(-c2ccc(Oc3ccc(F)cc3)c(-c3nn[nH]n3)c2)n1 [compound 101, 6-(4-(4-fluorophenoxy)-3-(2H-tetrazol-5-yl)phenyl)picolinamide] | 1.83 ± 0.383 µM |
| CN(Cc1cc(-c2cccc(C(N)=O)n2)ccc1Oc1ccc(F)cc1)c1ccccc1 [compound 102, 6-(4-(4-fluorophenoxy)-3-((methyl(phenyl)amino)methyl)phenyl)picolinamide] | 1.3 ± 0.126 µM |
| COCc1cc(-c2cccc(C(N)=O)n2)ccc1Oc1ccc(F)cc1 [compound 103, 6-(4-(4-fluorophenoxy)-3-(methoxymethyl)phenyl)picolin-amide] | 0.312 ± 0.008 µM |
| NC(=O)c1cccc(-c2ccc(Oc3ccc(F)cc3)c(COc3ccc(F)cc3)c2)n1 [compound 104, 6-(4-(4-fluorophenoxy)-3-((4-fluorophenoxy)methyl)phenyl) picolinamide] | > 20 µM |
| N#Cc1ccc(OCc2cc(-c3cccc(C(N)=O)n3)ccc2Oc2ccc(F)cc2)cc1 [compound 105, 6-(3-((4-cyanophenoxy)methyl)-4-(4-fluorophenoxy)phenyl)picolinamide] | 0.362 ± 0.095 µM |
